Read-outs that look alike come from different tables or passages of the source.
Assays:
[1] = molecular target: T1, IDO-1 (Homo sapiens, UniProt P14902); test: Enzymatic assay, IDO-1; format: biochemical
T1 construct: made in house
Procedure: (§1) Test substance: Compound 1 of the present invention, prepared according to the method of Example 1 or the Step 3 of Example 5
(§2) I. Experimental materials and instruments
(§3) Preparation of compound: The compound was made up into 1 mM compound mother liquor with DMSO, and then the compound was diluted 3.16 times with DMSO to obtain 10 concentration gradients (100×) of the compound of the diluted mother liquors..
(§4) Medication and incubation: 10 μL of 100× compound of the diluted mother liquors were added into a 96-well plate, to which was added 10 μL of enzyme solution (IDO-1 or TDO), centrifuged at 2000 rpm for 1 minute, and incubated at room temperature for 30 minutes. 4% DMSO enzyme-free solution was used as a negative control, and 4% DMSO enzyme-containing solution was used as a positive control. 20 μL of substrate mixture (L-tryptophan, ascorbate, methylene blue, catalase) was added and incubated for 1 hour at room temperature, then 20 μL of stop solution was added to the experimental plate to terminate the reaction. After shaking and mixing, incubation was carried out at 60° C. for 30 minutes. […]
(§5) Detection: A microplate reader was used to detect the absorbance value at 492 nm.
(§6) Calculation: The inhibition rate was calculated according to the following formula, using the Spectramax program to fit the curve slope, and using GraphPad Prism5.0 to fit the IC50: […]

[2] = molecular target: T2, TDO (Homo sapiens, UniProt P48775); test: Enzymatic assay, TDO; format: biochemical
T2 construct: made in house
Procedure: as §1, §2, §3, §4, §5, §6

[3] = system: Hela cells; test: Cytological evaluation in rhIFN-γ stimulated Hela cells; format: cell-based; details: rhIFN-γ 50 ng/ml, read-out: Hela Cell IC50
Procedure: Test substances: Compounds 1-3 of the present invention, prepared as described in the previous specific Examples.
Hela cell line (Cell Bank, Chinese Academy of Sciences)
Recombinant human IFN-γ (rhIFN-γ, purchased from R&D Systems, Cat. No. 285-IF-100)
Cell plating: Hela cell suspension was prepared with fresh phenol red-free DMEM medium, and 20,000 cells/well were added to a 96-well cell culture plate, and cultured in 5% carbon dioxide at 37° C. overnight.
Preparation of compounds: the compounds were made up into 0.5 mM solution with DMSO, and the compounds were diluted 3.16 times with DMSO to obtain 8 compound mother liquors of concentration gradients (500×), and diluted with cell culture medium to prepare 10× dilutions.
Medication and incubation: After the cells were seeded and cultured overnight, 10 μL of a compound of the corresponding diluted mother liquor (10×) was added to each well and incubated for 1 hour, then 10 μL of 500 ng/ml rhIFN-γ was added, the final volume of each well was 100 μL. The negative control wells contained 100 μL of 0.5% DMSO cell culture medium and Hela cells. The positive control wells were the wells where rhIFN-γ at a final concentration of 50 ng/ml was added to the negative control wells, and the background control wells contained 100 μL of cell culture medium. After incubation in a 37 ° C. incubator for 24 hours. the cell morphology was observed under an inverted microscope.
Detection: After the cell plate was centrifuged, 80 μL of the supernatant was taken and added to a Corning 96-well plate, 10 μL of trichloroacetic acid was added to each well, shaken, placed in a 60 ° C. incubator for 30 minutes, and centrifuged at 2500 rpm for 5 minutes. 45 μL of the supernatant was taken and transferred to a new plate, 45 μL of chromogenic solution was added, shaken to make the reaction uniform. After incubating at room temperature for 15 minutes, the absorbance at 492 nm wavelength was read.

[4] = Evaluation of pharmacokinetics in mice; format: in vivo, C57BL/6 female mice; details: for Cl_obs / Vz_obs / tz 1/2 / AUC(0-t) / AUC(0-inf): IV 5 mg/kg, C57BL/6 female mice, mean; for AUC(0-t) / AUC(0-inf): mouse, plasma; for AUC(0-inf): read-out: AUCINF_obs
Procedure: Test substance: Compound 1 of the present invention,prepared according to the method of Example 1 or Step 3 of Example 5;
Compound R, prepared as described in Example 8.
Animal: C57BL/6 female mice
The Compound 1 used in the test was dissolved in 10% DMA+10% (30% solutol)+80% saline to prepare a solution, and the non-deuterated compound was dissolved in 10% DMA+10% PEG+80% saline to prepare a solution. C57BL/6 female mice were administered intravenously with Compound 1 at a dose of 5.0 mg/kg. The time points for blood sampling were: 5 min, 15 min, 30 min, 1 h, 2 h, 4 h, 6 h, 8 h, and 24 h. About 100 μL of blood was collected from the venous plexus, and the blood sample was placed in an anti-coagulation tube containing EDTA-K2. The blood sample was centrifuged at 8000 rpm for 6 minutes at 4° C. to obtain a plasma sample, wherein the plasma must be prepared within 30 minutes after blood sampling, and stored in −80° C. refrigerator before plasma testing.
The sample (−80° C.) to be tested was taken out from the refrigerator, melted at room temperature and vortexed for 5 minutes; 10 μL of plasma samples of 3 different individuals were precisely pipetted into 1.5 mL centrifuge tubes (for standard curve of plasma, 30 μL); 200 μL of 100 ng/mL internal standard working solution was added, and mixed well; vortexed for 5 min, then centrifuged for 5 min (12000 rpm); precisely pipetted 50 μL of supernatant into a 96-well plate to which was added 150 μL/well of water in advance; vortexed and mixed for 5 min. The injection volume was 15 μL, and LC-MS/MS measurement was carried out.
The concentrations of test substance were used from the analysis results of AB Analyst 1.6.3. Microsoft Excel was used to calculate the parameters such as mean, standard deviation, and coefficient of variation (those directly output from Analyst 1.6.3 were not calculated). The PK parameters were calculated using Pharsight Phoenix 6.1 software NCA.

[5] = system: CT26 cells; test: In vivo pharmacodynamics, subcutaneous homograft model with colon cancer cell CT26 in mouse; parameters: species or system Balb/C mice; details: 150 mg/kg PO Bid 10 days, CT26 tumor-bearing mice
Procedure: Test substance: Compound 1 of the present invention, which structure was shown in the foregoing.
CT26 cells were cultured in RPMI1640 medium containing 10% fetal bovine serum. CT26 cells in exponential growth phase were collected, and resuspended in PBS to a suitable concentration for subcutaneous tumor inoculation in mice.
0.1 mL of cell suspension (cells suspended in PBS) containing about 5×10^5 CT26 cells was subcutaneously inoculated into the skin of the right back of female Balb/C mice. The mice were grouped and administrated when the average tumor volume reached about 100 mm^3. Grouping method: weighing animals before administration, and measuring tumor volume. According to tumor volume, the mice were grouped using block design, 9 mice in each group.
Administration was performed according to Table 7 below.
The animals' health and death were monitored daily, their body weights and tumor volumes were measured twice a week, and samples were collected after the last dose. The curative effect of tumor volume was evaluated by TGI%, wherein relative tumor suppression rate TGI (%) was: TGI=1-T/C (%). T/C% was the relative tumor increment rate, that is, the percentage of tumor volume in the treatment group relative to that of the control group at a specific time point. […]

[6] = Stability test of Crystalline Form A; format: physicochemical
From the text: Method: Crystalline Form A was left open at high temperature and in high humidity conditions, and XRPD patterns were compared to […]. The data in Table 5 below were obtained.

[7] = Stability test of Crystalline Form B; format: physicochemical
From the text: Method: Crystalline Form B was left open for 10 days at high temperature and in high humidity conditions. The properties, measured content and impurities of the Crystalline Form B were observed, and the XRPD patterns were compared to obtain the data in Table 6.

[8] = IV 5 mg/kg mice, compared with Compound R
[9] = High temperature, 60° C., left open, 10 days

T1 sequence (P14902 whole entry, species assumed): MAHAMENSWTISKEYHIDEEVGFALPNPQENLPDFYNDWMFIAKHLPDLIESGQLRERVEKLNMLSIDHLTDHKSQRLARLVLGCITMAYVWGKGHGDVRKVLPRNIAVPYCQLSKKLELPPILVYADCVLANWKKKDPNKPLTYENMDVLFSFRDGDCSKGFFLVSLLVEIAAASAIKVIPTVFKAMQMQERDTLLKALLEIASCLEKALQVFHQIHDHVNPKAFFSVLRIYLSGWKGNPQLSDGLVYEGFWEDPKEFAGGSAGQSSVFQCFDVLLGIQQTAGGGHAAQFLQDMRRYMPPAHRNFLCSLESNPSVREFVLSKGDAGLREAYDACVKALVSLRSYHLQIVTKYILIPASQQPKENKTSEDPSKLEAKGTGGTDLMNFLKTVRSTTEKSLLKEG
T2 sequence (P48775 whole entry, species assumed): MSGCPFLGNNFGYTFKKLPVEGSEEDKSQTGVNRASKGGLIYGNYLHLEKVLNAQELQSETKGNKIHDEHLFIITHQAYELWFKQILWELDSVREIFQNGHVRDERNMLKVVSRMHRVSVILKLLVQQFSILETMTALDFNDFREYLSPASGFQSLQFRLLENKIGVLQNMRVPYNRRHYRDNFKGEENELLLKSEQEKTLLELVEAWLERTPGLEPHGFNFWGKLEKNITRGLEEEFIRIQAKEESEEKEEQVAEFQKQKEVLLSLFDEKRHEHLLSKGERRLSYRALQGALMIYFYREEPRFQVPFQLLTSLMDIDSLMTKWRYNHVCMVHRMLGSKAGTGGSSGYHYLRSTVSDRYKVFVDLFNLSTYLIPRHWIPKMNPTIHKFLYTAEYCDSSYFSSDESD

## [2H]C1([2H])CC(Nc2nonc2C(=NO)Nc2ccc(F)c(Br)c2)CC([2H])([2H])S1(=O)=O [Compound 1, N-(3-bromo-4-fluorophenyl)-4-((1,1-dioxotetrahydro-2H-thian-4-yl-2,2,6,6-d4)amino)-N′-hydroxy-1,2,5-oxadiazole-3-carboxamidine]
[1]
  IC50: 0.0854 µM
[2]
  IC50: 5.04 µM
[3]; 24 hours
  IC50: 0.0997 µM
[4]; [8]
  clearance rate (in words): lower
  exposure amount (in words): higher
[4]
  Cl_obs: 36.5 mL/min/kg
  Vz_obs: 11.7 L/kg
  tz 1/2: 3.70 h
  AUC(0-t): 2040 ng·h/mL
  AUC(0-inf): 2290 ng·h/mL
[5]
  TGI (tumor volume inhibition rate): 38%
  Tumor volume: 414.32 ± 52.44 mm^3

## [2H]C1([2H])CC(Nc2nonc2C(=NO)Nc2ccc(F)c(Br)c2)C([2H])([2H])S1(=O)=O (stereo not drawn) [Compound 2, N-(3-bromo-4-fluorophenyl)-4-((1,1-dioxotetrahydro-thiophen-3-yl-2,2,5,5-d4)amino)-N-hydroxy-1,2,5-oxadiazole-3-carboxamidine]
[3]; Homo sapiens, HeLa, 24 h
  IC50: 0.0505 µM

## [2H]C1([2H])C(Nc2nonc2C(=NO)Nc2ccc(F)c(Br)c2)C([2H])([2H])S1(=O)=O [Compound 3, N-(3-bromo-4-fluorophenyl)-4-((1,1-dioxothiacyclobutan-3-yl-2,2,4,4-d4)amino)-N′-hydroxy-1,2,5-oxadiazole-3-carboxamidine]
[3]; Homo sapiens, HeLa, 24 h
  IC50: 0.0496 µM

## O=S1(=O)CCC(Nc2nonc2C(=NO)Nc2ccc(F)c(Br)c2)CC1 [Compound R, N-(3-bromo-4-fluorophenyl)-4-((1,1-dioxotetrahydro-2H-thian-4-yl)amino)-N′-hydroxy-1,2,5-oxadiazole-3-carboxamidine, reference compound]
[4]
  Cl_obs: 73.2 mL/min/kg
  Vz_obs: 12 L/kg
  tz 1/2: 1.81 h
  AUC(0-t): 1120 ng·h/mL
  AUC(0-inf): 1140 ng·h/mL

## [2H]C1([2H])CC(Nc2nonc2C(=NO)Nc2ccc(F)c(Br)c2)CC([2H])([2H])S1(=O)=O [Crystal Form A of Compound 1]
[3]; 24 hours
  IC50: 0.04 µM
[6]; 0-Day
  Impurity, %: 0.74%
  XRPD: Crystal Form A, FIG. 1
[6]; High temperature, 105° C., left open, 3 days
  XRPD: Consistent with the 0-day XRPD
[6]; RH 92.5%, left open, 3 days
  XRPD: Consistent with the 0-day XRPD
[6]; RH 92.5%, left open, 10 days
  Impurity, %: 0.99%

## [2H]C1([2H])CC(Nc2nonc2C(=NO)Nc2ccc(F)c(Br)c2)CC([2H])([2H])S1(=O)=O [Crystal Form B of Compound 1]
[3]; 24 hours
  IC50: 0.03 µM
[7]; 0-Day
  Content, %: 99.6%
  Impurity, %: 0.17%
  Properties: Off-white
  XRPD: Crystal Form B,
[7]; [9]
  Content, %: 99.4%
  Impurity, %: 0.16%
  Properties: Off-white
[7]; RH 92.5%, left open, 10 days
  Content, %: 99.3%
  Impurity, %: 0.15%
  Properties: Off-white
